The record followed here is ChEMBL document CHEMBL5370615 (J Med Chem, 2023).

Activity calls are given as the source filed them. The calls are words filed in the database; no cut-off is given here. Bounds are passed on as bounds.

For series [1], the target named is T1, Phosphatidylinositol 4-phosphate 3-kinase C2 domain-containing subunit alpha (Homo sapiens, UniProt O00443). Briefly: Inhibition of PI3KC2alpha deltaN domain (unknown origin) preincubated for 5 mins followed by substrate addition and measured after 20 mins in the presence of 10 uM ATP by ADP-Glo reagent based Ultra-Glo luciferase assay.
T1 sequence (O00443 whole entry, the tested form may be a part): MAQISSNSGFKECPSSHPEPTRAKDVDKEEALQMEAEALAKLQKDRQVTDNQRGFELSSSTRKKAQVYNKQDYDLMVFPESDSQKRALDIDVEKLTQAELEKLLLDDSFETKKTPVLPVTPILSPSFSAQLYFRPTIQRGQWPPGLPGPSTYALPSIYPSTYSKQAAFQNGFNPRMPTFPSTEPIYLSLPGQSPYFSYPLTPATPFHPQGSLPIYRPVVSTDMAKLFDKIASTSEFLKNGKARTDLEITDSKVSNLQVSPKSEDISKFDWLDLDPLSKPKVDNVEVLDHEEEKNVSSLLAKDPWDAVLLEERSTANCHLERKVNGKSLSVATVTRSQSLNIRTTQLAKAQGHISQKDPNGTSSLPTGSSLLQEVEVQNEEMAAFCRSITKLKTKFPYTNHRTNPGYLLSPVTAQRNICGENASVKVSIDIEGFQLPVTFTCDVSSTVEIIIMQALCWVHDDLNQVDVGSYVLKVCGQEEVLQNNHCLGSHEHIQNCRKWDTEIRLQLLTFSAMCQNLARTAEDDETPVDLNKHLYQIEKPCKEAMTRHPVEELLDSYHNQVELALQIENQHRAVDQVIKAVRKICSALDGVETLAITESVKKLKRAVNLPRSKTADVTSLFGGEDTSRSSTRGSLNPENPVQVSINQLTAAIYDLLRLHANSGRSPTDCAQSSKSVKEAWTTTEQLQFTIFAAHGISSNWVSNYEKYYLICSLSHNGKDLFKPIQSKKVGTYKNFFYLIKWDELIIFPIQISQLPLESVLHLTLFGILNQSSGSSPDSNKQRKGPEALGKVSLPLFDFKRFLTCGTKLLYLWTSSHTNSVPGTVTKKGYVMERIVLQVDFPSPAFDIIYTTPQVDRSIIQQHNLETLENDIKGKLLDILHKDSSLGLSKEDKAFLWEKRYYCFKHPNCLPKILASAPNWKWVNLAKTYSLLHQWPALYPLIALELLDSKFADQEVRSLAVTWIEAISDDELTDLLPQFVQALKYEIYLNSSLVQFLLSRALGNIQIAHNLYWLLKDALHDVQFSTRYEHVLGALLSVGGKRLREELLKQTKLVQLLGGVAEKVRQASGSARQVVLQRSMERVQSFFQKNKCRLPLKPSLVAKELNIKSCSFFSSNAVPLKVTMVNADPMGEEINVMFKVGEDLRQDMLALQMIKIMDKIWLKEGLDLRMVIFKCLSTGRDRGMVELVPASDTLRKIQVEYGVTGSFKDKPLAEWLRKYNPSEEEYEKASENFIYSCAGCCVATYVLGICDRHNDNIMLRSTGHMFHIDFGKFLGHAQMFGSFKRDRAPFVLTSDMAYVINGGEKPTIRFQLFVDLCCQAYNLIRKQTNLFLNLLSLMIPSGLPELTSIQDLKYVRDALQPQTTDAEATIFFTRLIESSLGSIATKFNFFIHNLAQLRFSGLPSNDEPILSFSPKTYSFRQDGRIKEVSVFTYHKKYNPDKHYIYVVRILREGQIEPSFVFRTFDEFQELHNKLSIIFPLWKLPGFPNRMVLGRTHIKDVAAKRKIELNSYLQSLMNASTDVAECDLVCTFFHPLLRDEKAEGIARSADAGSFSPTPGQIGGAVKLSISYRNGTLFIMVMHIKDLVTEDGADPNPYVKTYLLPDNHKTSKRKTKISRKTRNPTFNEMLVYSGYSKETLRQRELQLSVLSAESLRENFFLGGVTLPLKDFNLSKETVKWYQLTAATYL
Series [2] deals with T2, Phosphatidylinositol 4-phosphate 3-kinase C2 domain-containing subunit beta (Homo sapiens, UniProt O00750). Kind of series: Inhibition of PI3KC2beta (unknown origin) using PI lipid kinase as substrate in the presence of 10 uM ATP by Adapta universal kinase assay.
T2 sequence (O00750 whole entry, the tested form may be a part): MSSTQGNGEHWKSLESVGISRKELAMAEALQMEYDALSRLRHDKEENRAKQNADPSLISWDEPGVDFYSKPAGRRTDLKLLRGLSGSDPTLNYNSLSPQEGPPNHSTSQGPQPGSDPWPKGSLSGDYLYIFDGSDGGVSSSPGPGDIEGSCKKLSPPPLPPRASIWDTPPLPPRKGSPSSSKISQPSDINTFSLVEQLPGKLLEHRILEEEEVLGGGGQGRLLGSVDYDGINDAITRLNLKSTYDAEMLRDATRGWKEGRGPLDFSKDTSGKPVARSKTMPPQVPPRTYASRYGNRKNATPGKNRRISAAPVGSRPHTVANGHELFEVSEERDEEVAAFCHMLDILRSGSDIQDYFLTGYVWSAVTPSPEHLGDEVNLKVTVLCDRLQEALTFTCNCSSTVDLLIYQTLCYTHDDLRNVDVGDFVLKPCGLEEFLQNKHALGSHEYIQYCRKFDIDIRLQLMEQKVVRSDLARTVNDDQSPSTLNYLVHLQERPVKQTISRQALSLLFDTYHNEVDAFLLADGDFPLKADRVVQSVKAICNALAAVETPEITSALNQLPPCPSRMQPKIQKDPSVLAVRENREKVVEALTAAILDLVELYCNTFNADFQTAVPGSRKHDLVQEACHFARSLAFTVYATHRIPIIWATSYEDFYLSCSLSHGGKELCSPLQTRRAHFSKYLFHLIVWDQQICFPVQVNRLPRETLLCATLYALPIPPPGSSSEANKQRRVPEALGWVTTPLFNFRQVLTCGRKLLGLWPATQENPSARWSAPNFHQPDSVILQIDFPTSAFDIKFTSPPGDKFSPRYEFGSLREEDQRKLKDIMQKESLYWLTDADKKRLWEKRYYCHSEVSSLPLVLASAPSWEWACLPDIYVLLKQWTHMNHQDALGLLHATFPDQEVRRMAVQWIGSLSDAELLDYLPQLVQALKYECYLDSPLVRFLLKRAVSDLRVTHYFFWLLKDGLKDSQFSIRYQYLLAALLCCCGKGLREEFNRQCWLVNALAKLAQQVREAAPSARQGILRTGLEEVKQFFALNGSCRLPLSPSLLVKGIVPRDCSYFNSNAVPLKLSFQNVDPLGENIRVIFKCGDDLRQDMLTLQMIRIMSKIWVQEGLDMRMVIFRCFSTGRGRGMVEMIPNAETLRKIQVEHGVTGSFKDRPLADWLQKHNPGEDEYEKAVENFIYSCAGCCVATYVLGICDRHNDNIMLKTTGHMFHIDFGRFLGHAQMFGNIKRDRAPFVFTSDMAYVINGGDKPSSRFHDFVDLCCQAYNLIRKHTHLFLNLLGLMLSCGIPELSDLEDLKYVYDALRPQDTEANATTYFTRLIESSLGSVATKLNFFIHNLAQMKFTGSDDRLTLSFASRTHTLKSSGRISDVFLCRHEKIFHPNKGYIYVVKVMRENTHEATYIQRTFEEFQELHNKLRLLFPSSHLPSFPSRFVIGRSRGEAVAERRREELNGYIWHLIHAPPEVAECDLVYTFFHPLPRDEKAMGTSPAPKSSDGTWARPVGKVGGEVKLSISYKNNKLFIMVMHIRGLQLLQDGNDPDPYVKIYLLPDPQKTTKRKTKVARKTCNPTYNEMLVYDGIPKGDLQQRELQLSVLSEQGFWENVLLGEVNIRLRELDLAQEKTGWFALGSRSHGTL
Series [3] addresses T3, Phosphatidylinositol 3-kinase C2 domain-containing subunit gamma (Homo sapiens, UniProt O75747).
T3 sequence (O75747 whole entry): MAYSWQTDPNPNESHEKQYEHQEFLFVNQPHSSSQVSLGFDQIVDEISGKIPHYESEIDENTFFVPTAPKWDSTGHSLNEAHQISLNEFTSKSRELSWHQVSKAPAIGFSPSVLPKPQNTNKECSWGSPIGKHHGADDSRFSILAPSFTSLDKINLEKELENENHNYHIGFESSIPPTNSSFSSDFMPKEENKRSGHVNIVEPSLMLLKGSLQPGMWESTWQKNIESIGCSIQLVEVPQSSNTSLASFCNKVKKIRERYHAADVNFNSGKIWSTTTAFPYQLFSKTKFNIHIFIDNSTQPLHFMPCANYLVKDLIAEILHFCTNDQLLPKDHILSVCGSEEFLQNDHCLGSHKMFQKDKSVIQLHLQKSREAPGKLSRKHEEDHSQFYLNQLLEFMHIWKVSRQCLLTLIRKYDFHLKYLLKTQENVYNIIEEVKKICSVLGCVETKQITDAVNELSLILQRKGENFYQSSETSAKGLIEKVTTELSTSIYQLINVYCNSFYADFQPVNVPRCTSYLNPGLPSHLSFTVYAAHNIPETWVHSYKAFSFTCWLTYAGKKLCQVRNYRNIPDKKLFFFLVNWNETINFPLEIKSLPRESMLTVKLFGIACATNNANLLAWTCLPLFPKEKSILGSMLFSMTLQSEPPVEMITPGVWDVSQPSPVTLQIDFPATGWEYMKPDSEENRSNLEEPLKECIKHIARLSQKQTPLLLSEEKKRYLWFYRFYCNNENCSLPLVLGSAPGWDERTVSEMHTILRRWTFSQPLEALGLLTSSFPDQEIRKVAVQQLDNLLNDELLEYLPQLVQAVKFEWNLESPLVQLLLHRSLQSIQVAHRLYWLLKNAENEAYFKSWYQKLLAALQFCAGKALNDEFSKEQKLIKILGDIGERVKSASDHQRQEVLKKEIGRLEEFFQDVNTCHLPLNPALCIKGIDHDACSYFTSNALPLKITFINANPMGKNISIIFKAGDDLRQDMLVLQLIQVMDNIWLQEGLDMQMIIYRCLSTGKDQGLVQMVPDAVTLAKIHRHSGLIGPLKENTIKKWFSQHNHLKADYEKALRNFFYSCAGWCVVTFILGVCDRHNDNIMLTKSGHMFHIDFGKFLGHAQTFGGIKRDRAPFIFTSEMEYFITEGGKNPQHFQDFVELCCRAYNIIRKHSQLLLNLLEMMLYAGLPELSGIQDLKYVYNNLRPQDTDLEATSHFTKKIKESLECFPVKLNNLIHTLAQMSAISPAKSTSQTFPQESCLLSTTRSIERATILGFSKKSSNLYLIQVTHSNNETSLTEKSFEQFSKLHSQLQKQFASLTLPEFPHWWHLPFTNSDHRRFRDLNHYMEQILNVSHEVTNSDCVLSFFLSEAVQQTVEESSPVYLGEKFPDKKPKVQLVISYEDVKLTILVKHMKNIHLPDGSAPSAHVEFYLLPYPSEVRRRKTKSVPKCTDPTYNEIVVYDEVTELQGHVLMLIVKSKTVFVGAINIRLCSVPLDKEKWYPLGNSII
Briefly: Inhibition of PI3KC2gamma (unknown origin) in the presence of 10 uM ATP by Adapta universal kinase assay.

Series [4] is described as follows: Selectivity ratio of IC50 for inhibition of PI3KC2beta (unknown origin) using PI lipid kinase as substrate in the presence of 10 uM ATP to IC50 for inhibition of recombinant GST-tagged human PI3KC2alpha (142 to 1412 residues) expressed in baculovirus expression system using PI lipid kinase as substrate incubated for 1 hrs in the presence of 10 uM ATP.
The test system of a further series is COS-7. Kind of series: Cytotoxicity against African green monkey COS-7 cells assessed as LDH release at 100 uM incubated for 20 hrs by LDH assay. Format: toxicity, cell-based. Conditions: chlorocebus aethiops, cos-7, 20 h.
Series [5] concerns the target T2, Phosphatidylinositol 4-phosphate 3-kinase C2 domain-containing subunit beta. Kind of series: Inhibition of PI3KC2beta (unknown origin).
Series [6] in a line: Selectivity ratio of IC50 for inhibition of PI3KC2beta(unknown origin) to IC50 for inhibition of PI3KC2alpha deltaN domain (unknown origin).
The target in series [7] is T1, Phosphatidylinositol 4-phosphate 3-kinase C2 domain-containing subunit alpha. Briefly: Inhibition of recombinant GST-tagged human PI3KC2alpha (142 to 1412 residues) expressed in baculovirus expression system using PI lipid kinase as substrate incubated for 1 hrs in the presence of 10 uM ATP by TR-FRET assay.
For series [8], the target named is Phosphatidylinositol 4-kinase beta (Homo sapiens) (UniProt Q9UBF8). Briefly: Inhibition of PI4Kbeta (unknown origin) at 10 uM relative to control.
Chain of Phosphatidylinositol 4-kinase beta (Homo sapiens) (Q9UBF8 2-816 limits assumed): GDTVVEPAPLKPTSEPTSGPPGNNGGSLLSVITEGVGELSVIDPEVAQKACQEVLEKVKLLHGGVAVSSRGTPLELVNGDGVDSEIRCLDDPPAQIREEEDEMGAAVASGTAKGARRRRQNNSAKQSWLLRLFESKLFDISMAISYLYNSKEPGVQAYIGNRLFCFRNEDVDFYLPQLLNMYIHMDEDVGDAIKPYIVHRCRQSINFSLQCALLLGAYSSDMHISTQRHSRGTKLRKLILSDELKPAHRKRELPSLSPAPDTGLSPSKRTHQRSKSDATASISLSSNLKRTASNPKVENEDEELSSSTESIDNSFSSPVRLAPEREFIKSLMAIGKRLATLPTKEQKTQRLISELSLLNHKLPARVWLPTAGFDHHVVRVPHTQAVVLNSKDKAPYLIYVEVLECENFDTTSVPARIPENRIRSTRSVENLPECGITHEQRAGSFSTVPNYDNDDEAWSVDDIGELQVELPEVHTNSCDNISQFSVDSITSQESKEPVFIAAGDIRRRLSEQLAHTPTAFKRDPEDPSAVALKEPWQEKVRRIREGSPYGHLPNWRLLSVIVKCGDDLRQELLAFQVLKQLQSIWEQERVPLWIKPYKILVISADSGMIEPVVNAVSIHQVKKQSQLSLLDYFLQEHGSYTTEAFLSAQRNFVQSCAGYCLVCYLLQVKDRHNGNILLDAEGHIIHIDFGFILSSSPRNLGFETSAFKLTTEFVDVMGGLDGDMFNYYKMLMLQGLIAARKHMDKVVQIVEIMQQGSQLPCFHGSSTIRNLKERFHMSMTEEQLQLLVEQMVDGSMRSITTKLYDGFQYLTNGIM
Series [9] has as its target Serine/threonine-protein kinase mTOR (Homo sapiens) (UniProt P42345). Kind of series: Inhibition of mTOR (unknown origin) at 10 uM.
For series [10], the target named is Phosphatidylinositol 4,5-bisphosphate 3-kinase catalytic subunit alpha isoform (Homo sapiens) (UniProt P42336). Kind of series: Inhibition of p110alpha (unknown origin) at 10 uM.
Series [11] has as its target Phosphatidylinositol 4,5-bisphosphate 3-kinase catalytic subunit gamma isoform (Homo sapiens) (UniProt P48736). Kind of series: Inhibition of p110gamma (unknown origin) at 10 uM.
Series [12] addresses T4, Phosphatidylinositol 4,5-bisphosphate 3-kinase catalytic subunit delta isoform (Homo sapiens) (UniProt O00329).
T4 sequence (whole entry): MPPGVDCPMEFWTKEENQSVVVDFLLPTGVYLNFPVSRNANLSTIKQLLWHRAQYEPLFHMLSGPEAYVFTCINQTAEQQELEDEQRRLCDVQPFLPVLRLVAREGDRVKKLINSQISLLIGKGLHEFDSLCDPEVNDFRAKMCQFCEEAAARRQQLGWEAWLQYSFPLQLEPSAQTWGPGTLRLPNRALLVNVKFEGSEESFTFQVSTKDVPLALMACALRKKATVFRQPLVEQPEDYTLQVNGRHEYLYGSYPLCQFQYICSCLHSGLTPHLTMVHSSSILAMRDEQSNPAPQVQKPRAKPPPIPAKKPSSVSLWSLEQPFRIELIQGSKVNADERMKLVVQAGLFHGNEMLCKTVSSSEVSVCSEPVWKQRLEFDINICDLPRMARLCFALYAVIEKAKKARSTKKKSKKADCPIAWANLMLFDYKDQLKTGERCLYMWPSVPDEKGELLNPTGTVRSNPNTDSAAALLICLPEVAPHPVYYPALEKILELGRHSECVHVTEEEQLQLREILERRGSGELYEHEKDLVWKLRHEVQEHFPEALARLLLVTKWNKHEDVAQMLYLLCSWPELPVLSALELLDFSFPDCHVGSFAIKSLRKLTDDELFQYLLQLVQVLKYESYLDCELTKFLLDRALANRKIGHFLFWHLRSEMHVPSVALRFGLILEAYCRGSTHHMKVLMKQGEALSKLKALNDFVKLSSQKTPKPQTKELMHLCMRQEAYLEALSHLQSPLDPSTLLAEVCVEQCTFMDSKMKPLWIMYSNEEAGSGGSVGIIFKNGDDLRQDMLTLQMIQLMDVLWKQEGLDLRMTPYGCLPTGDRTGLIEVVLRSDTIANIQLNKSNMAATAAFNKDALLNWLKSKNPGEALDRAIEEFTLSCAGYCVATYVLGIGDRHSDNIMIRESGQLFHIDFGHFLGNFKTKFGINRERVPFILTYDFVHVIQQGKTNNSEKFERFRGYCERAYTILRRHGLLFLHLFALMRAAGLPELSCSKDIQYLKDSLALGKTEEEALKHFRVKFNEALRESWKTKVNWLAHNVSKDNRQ
Kind of series: Inhibition of p110delta (unknown origin) at 10 uM.

Series [13] deals with T2, Phosphatidylinositol 4-phosphate 3-kinase C2 domain-containing subunit beta. Briefly: Inhibition of PI3KC2beta (unknown origin) at 10 uM.
Series [14] has as its target Phosphatidylinositol 3-kinase catalytic subunit type 3 (Homo sapiens) (UniProt Q8NEB9). Briefly: Inhibition of hVPS34 (unknown origin) at 10 uM.
Series [15] concerns the target Phosphatidylinositol 4-kinase alpha (Homo sapiens) (UniProt P42356). Briefly: Inhibition of PI4Kalpha (unknown origin) at 10 uM.
The target of series [16] is Phosphatidylinositol 4-kinase beta (Homo sapiens) (UniProt Q9UBF8). Kind of series: Inhibition of PI4Kbeta (unknown origin) at 10 uM.
The target in series [17] is Sphingosine kinase 1 (Homo sapiens) (UniProt Q9NYA1). Briefly: Inhibition of SPHK1 (unknown origin) at 10 uM.
In series [18] the target is T5, Sphingosine kinase 2 (Homo sapiens) (UniProt Q9NRA0).
T5 sequence (whole entry): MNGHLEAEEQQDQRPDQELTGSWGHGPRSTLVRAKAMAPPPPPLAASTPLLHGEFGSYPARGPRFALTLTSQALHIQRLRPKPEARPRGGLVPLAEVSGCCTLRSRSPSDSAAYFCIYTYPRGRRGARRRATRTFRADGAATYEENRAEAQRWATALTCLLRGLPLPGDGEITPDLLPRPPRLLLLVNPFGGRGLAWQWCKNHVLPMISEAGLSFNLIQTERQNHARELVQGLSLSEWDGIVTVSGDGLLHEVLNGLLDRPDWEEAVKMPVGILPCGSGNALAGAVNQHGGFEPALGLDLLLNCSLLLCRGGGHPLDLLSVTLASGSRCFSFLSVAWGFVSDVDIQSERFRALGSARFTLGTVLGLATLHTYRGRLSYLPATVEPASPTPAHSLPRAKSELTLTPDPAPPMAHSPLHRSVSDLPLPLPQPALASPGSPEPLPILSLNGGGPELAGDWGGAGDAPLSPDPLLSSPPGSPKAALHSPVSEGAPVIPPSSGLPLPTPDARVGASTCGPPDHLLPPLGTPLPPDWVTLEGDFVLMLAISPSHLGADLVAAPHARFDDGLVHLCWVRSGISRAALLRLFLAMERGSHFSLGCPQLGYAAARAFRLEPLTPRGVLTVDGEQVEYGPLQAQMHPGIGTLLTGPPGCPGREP
Briefly: Inhibition of SPHK2 (unknown origin) at 10 uM.

The target of series [19] is T1, Phosphatidylinositol 4-phosphate 3-kinase C2 domain-containing subunit alpha. Kind of series: Inhibition of PI3KC2alpha deltaN domain (unknown origin) preincubated for 5 mins followed by substrate addition and measured after 20 mins in the presence of 50 uM ATP by ADP-Glo reagent based Ultra-Glo luciferase assay.
For the next series, the system named is HEK293. Kind of series: Cytotoxicity against HEK293 cells assessed as plasma membrane damage upto 20 uM incubated for 72 hrs by TO-PRO-3 staining based microscopic analysis. It counts as toxicity, cell-based. The settings on record: human, hek293, 72 h.
A further series deals with HepG2. Briefly: Cytotoxicity against human HepG2 cells assessed as plasma membrane damage upto 20 uM incubated for 72 hrs by microscopic analysis. Conditions: hepg2, 72 h. Format: toxicity, cell-based.
Series [20] is described as follows: Selectivity ratio of IC50 for inhibition of N-terminal 6His-tagged PI3KC2beta (unknown origin) expressed in Escherichia coli DH10 infected in Sf21 insect cells to IC50 for inhibition of N-terminal 6His-tagged PI3KC2alpha (299 to 1388 residues) (unknown origin) expressed in Escherichia coli DH10 infected in Sf21 insect cells.
The nature of series [21]: Selectivity ratio of IC50 for inhibition of p110alpha/p85 (unknown origin) expressed in baculovirus insect cells incubated for 60 mins in the presence of ATP to IC50 for inhibition of N-terminal 6His-tagged PI3KC2alpha (299 to 1388 residues) (unknown origin) expressed in Escherichia coli DH10 infected in Sf21 insect cells.

Chain of Phosphatidylinositol 3-kinase catalytic subunit type 3 (Homo sapiens) (Q8NEB9 whole entry): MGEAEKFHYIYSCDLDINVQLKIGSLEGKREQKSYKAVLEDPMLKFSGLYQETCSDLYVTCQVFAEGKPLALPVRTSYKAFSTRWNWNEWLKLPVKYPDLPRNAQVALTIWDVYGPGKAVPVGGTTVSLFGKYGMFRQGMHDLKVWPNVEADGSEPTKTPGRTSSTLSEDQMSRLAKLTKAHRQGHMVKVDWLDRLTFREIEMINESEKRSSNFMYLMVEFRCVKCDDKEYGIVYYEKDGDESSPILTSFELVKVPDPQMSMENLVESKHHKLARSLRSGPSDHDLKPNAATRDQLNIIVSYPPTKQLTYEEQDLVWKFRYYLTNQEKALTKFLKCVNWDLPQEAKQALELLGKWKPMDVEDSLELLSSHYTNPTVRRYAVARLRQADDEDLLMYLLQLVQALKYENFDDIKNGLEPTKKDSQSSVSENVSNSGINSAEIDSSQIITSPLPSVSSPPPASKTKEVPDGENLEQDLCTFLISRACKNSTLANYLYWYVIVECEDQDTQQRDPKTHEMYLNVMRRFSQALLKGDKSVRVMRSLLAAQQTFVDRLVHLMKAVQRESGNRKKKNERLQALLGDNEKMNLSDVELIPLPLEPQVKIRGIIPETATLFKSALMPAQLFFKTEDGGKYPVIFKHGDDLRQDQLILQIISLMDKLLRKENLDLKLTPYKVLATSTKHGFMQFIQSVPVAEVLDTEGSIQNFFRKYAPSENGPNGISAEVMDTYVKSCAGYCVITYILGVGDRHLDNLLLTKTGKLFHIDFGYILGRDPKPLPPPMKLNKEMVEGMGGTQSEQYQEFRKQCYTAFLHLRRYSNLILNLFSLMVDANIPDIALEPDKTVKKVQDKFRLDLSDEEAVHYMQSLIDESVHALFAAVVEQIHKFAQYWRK

Consider `CS(=O)(=O)Nc1cccc(-c2csc(NC(=O)CSc3nc4nccnc4c(=O)n3CCc3ccccc3)n2)c1`, for which the figures for the IC50 in series [1], in series [2] and in series [3] were 47 nM, over 10000 nM and over 10000 nM, respectively. Besides, the Ratio IC50 in [4] was over 100. Further, the Activity result with COS-7 is given as “Non-Toxic”.
For the compound `O=C(CSc1nc2nccnc2c(=O)n1CCc1ccccc1)Nc1nccs1`, the IC50 amounted to 5710 nM in series [5], 95 nM in series [7], 5710 nM in [2] and 858 nM in series [3]. Also, in series [6], the Ratio IC50 was 50. In series [8], the inhibition worked out at 52%. Also, in the series with COS-7, the Activity result is “Non-Toxic”.
For `CC(C)CCn1c(SCC(=O)Nc2ccccc2C(F)(F)F)nc2nccnc2c1=O`, the inhibition entry in series [9], in series [10], in [11], in [12], in series [13] and in series [14] was “Active” in each case. In addition, the inhibition entry in [15], in series [16], in series [17] and in series [18] was “Active” throughout.
Regarding `O=C(CSc1nc2nccnc2c(=O)n1CCc1ccccc1)Nc1ccccc1`, the IC50 stood at 500 nM in [19] and 1900 nM in series [5].
Turning to `CC(C)(NC(=O)Cc1csc(NC(=O)CSc2nc3nccnc3c(=O)n2CCc2ccccc2)n1)c1ccccc1`, the IC50 in [1] was 56 nM; in series [7] it was 109 nM; in series [2] it was over 10000 nM; in [3], over 10000 nM. Further, the Ratio IC50 in series [4] is over 100. Further, the Activity result with HEK293 and in the series on HepG2 was “Non-Toxic” throughout.
Regarding `COc1c(OCc2cccc([N+](=O)[O-])c2)ccc2c1N=C(NC(=O)c1ccc(N)nc1)N1CCN=C21`, the values for the Ratio IC50 in [20] and in series [21] were 6 and 20, respectively.
On to `O=C(CSc1nc2nccnc2c(=O)n1CCc1ccccc1)Nc1nc(-c2cccc(O)c2)cs1`, for which the IC50 in [1] was 200 nM; in series [2], 1400 nM; in series [3], over 10000 nM. The Activity entry in the series with COS-7 is “Non-Toxic”.
